From patent US20230234943A1, “TREX1 INHIBITORS AND USES THEREOF” (Tempest Therapeutics, Inc., priority 2020, published 2023) come the findings set out here.

Each structure is given as a SMILES string.

The target in the assay is T1, Human TREX1 enzyme (amino acids 1-242) (Homo sapiens, UniProt Q9NSU2).
T1 construct: Human TREX1 enzyme (amino acids 1-242)
T1 sequence (Q9NSU2 1-242): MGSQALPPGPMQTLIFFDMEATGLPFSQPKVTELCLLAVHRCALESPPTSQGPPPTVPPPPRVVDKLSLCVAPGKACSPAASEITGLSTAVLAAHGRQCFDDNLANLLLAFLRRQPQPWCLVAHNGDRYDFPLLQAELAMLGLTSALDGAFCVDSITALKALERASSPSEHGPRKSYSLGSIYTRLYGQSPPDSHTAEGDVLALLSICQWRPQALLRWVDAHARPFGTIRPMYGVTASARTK
Put plainly: Human TREX1 enzymatic assay with dsDNA native oligonucleotide (Picogreen fluorescence). The assay is classed as biochemical. Particulars: 2 mM dithiothreitol in assay buffer; 50 nM dsDNA oligonucleotide; 30 min preincubation at 25° C.; read-out: TREX1/Human + DTT IC50 AVG. In a few lines:
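Remaining dsDNA quantified by Picogreen fluorescence after EDTA quench, with no-enzyme and DMSO wells as controls. Reactions used 50 nM annealed oligonucleotide for 5–15 min at 25 °C, after a 30 min compound–enzyme preincubation (0.8–0.16 nM TREX1; 2% DMSO; pH 7.7 Tris, 5 mM MgCl2).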
In the case of `COc1cc(-c2nc3cc(N4CC5(CNC5)C4)ccc3[nH]2)cc(O)c1O` [Example 142, 5-(5-(2,6-diazaspiro[3.3]heptan-2-yl)-1H-benzo[d]imidazol-2-yl)-3-methoxybenzene-1,2-diol], the IC50 was greater than 100 µM. Next, `COc1cc(-c2nc3cc(N4CC(C)C4)ccc3[nH]2)cc(O)c1O` [Example 143, 3-methoxy-5-(5-(3-methylazetidin-1-yl)-1H-benzo[d]imidazol-2-yl)benzene-1,2-diol]: greater than 100 µM; `COc1cc(-c2nc3cc(N4CC(OC)C4)ccc3[nH]2)cc(O)c1O` [Example 144, 3-methoxy-5-(5-(3-methoxyazetidin-1-yl)-1H-benzo[d]imidazol-2-yl)benzene-1,2-diol]: 10 to 100 µM; `COc1cc(-c2nc3cc(N4CC(F)C4)ccc3[nH]2)cc(O)c1O` [Example 145, 5-(5-(3-fluoroazetidin-1-yl)-1H-benzo[d]imidazol-2-yl)-3-methoxybenzene-1,2-diol]: greater than 100 µM. Next, `COc1cc(-c2nc3cc(N4CC(NS(C)(=O)=O)C4)ccc3[nH]2)cc(O)c1O` [Example 146, N-(1-(2-(3,4-dihydroxy-5-methoxyphenyl)-1H-benzo[d]imidazol-5-yl)azetidin-3-yl)methanesulfonamide]: 1 to 10 µM; `O=C(O)c1ccc(-c2nc3ccncc3[nH]2)c(F)c1O` [Example 147, 3-fluoro-2-hydroxy-4-(3H-imidazo[4,5-c]pyridin-2-yl)benzoic acid]: greater than 100 µM. With `COc1cc(-c2nc3ccccc3n2C2CCCC2)c(C)c(O)c1O` [Example 148, 4-(1-cyclopentyl-1H-benzo[d]imidazol-2-yl)-6-methoxy-3-methylbenzene-1,2-diol], the IC50 fell in the range of 1 to 10 µM. As for `COc1cc(-c2nc3ccccc3n2C2CCOCC2)c(C)c(O)c1O` [Example 149, 6-methoxy-3-methyl-4-(1-(tetrahydro-2H-pyran-4-yl)-1H-benzo[d]imidazol-2-yl)benzene-1,2-diol], the IC50 was 10 to 100 µM. `O=C(O)c1cc(F)c(-c2nc3cc(N4CCC4)ccc3[nH]2)cc1O` [Example 150, 4-(5-(azetidin-1-yl)-1H-benzo[d]imidazol-2-yl)-5-fluoro-2-hydroxybenzoic acid]: the IC50 was in the range of 1 to 10 µM. Take `COc1cc(-c2nc3cc(N4CCOCC4)ccc3[nH]2)cc(C(=O)O)c1O` [Example 151, 2-hydroxy-3-methoxy-5-(5-morpholino-1H-benzo[d]imidazol-2-yl)benzoic acid]: the IC50 lay in the range of 10 to 100 µM. With `COc1cc(-c2nc3cc(N4CC5(CN(C)C5)C4)ccc3[nH]2)cc(O)c1O` [Example 152, 3-methoxy-5-(5-(6-methyl-2,6-diazaspiro[3.3]heptan-2-yl)-1H-benzo[d]imidazol-2-yl)benzene-1,2-diol], the IC50 was greater than 100 µM. Regarding `COc1cc(-c2nc3cc(N4CC5(C4)CN(C(C)C)C5)ccc3[nH]2)cc(O)c1O` [Example 153, 5-(5-(6-isopropyl-2,6-diazaspiro[3.3]heptan-2-yl)-1H-benzo[d]imidazol-2-yl)-3-methoxybenzene-1,2-diol], the IC50 fell in the range of 10 to 100 µM. As to `COc1cc(-c2nc3cc(N4CCN(C(=O)c5cccc(C)c5)CC4)ccc3[nH]2)cc(O)c1O` [Example 154, (4-(2-(3,4-dihydroxy-5-methoxyphenyl)-1H-benzo[d]imidazol-5-yl)piperazin-1-yl)(m-tolyl)methanone], the IC50 lay in the range of 1 to 10 µM. As for `COc1cc(-c2nc3cc(N4CCN(C(=O)c5ccccc5C(=O)O)CC4)ccc3[nH]2)cc(O)c1O` [Example 155, 2-(4-(2-(3,4-dihydroxy-5-methoxyphenyl)-1H-benzo[d]imidazol-5-yl)piperazine-1-carbonyl)benzoic acid], the IC50 fell in the range of 10 to 100 µM. Consider `COc1cc(-c2nc3cc(N4CCOCC4)ccc3s2)cc(O)c1O` [Example 156, 3-methoxy-5-(5-morpholinobenzo[d]thiazol-2-yl)benzene-1,2-diol], for which the IC50 was 10 to 100 µM.

Take `COc1cc(-c2nc3cc(N4CCC4)ccc3[nH]2)c(F)c(O)c1O` [Example 157, 4-(5-(azetidin-1-yl)-1H-benzo[d]imidazol-2-yl)-3-fluoro-6-methoxybenzene-1,2-diol]: the IC50 fell in the range of 1 to 10 µM. Under `COc1cc(-c2nc3ccccc3n2C2(C)CCOC2)c(C)c(O)c1O` (stereo not shown) [Example 158, 6-methoxy-3-methyl-4-(1-(3-methyltetrahydrofuran-3-yl)-1H-benzo[d]imidazol-2-yl)benzene-1,2-diol] stands 1 to 10 µM; under `COc1cc(-c2nc3cc(N4CCN(C(=O)c5ccccc5)CC4)ccc3[nH]2)c(F)c(O)c1O` [Example 159, (4-(2-(2-fluoro-3,4-dihydroxy-5-methoxyphenyl)-1H-benzo[d]imidazol-5-yl)piperazin-1-yl)(phenyl)methanone], 1 to 10 µM. Under `COc1cc(-c2nc3cc(N4CCC(N5CCCCC5)CC4)ccc3[nH]2)cc(O)c1O` [Example 160, 5-(5-([1,4′-bipiperidin]-1′-yl)-1H-benzo[d]imidazol-2-yl)-3-methoxybenzene-1,2-diol] stands greater than 100 µM. Under `O=C(O)c1ccc(-c2nc3ccccc3n2C2COC2)c(C(F)(F)F)c1O` [Example 161, 2-hydroxy-4-(1-(oxetan-3-yl)-1H-benzo[d]imidazol-2-yl)-3-(trifluoromethyl)benzoic acid] stands greater than 100 µM; under `Oc1cc(-c2nc3ccccc3n2C2COC2)c2c(c1O)OCC2` [Example 162, 4-(1-(oxetan-3-yl)-1H-benzo[d]imidazol-2-yl)-2,3-dihydrobenzofuran-6,7-diol], greater than 100 µM; under `Oc1cc(-c2nc3ccccc3n2C2COC2)c2c(c1O)OCCC2` [Example 163, 5-(1-(oxetan-3-yl)-1H-benzo[d]imidazol-2-yl)chroman-7,8-diol], 0.1 to 1 µM. In the case of `COc1cc(-c2nc3cc(N4CCC4)c(C)cc3[nH]2)cc(O)c1O` [Example 164, 5-(5-(azetidin-1-yl)-6-methyl-1H-benzo[d]imidazol-2-yl)-3-methoxybenzene-1,2-diol], the IC50 was in the range of 1 to 10 µM. Next, `COc1cc(-c2nc3ccccc3n2C2CNC2)c(C)c(O)c1O` [Example 165, 4-(1-(azetidin-3-yl)-1H-benzo[d]imidazol-2-yl)-6-methoxy-3-methylbenzene-1,2-diol]: 10 to 100 µM; `COc1cc(-c2nc3ccc(N4CCC4)cc3n2C2CCOC2)cc(C(=O)O)c1O` (stereo not shown) [Example 166, 5-(6-(azetidin-1-yl)-1-(tetrahydrofuran-3-yl)-1H-benzo[d]imidazol-2-yl)-2-hydroxy-3-methoxybenzoic acid]: 10 to 100 µM; `COc1cc(-c2nc3ccccc3n2C2COC2)c(F)c(O)c1O` [Example 167, 3-fluoro-6-methoxy-4-(1-(oxetan-3-yl)-1H-benzo[d]imidazol-2-yl)benzene-1,2-diol]: 1 to 10 µM.

For `COc1cc(-c2nc3ccccc3n2C2CCC2)c(C)c(O)c1O` [Example 168, 4-(1-cyclobutyl-1H-benzo[d]imidazol-2-yl)-6-methoxy-3-methylbenzene-1,2-diol], the IC50 lay in the range of 0.1 to 1 µM. On to `COc1cc(-c2nc3ccccc3n2C2(C)COC2)c(C)c(O)c1O` [Example 169, 6-methoxy-3-methyl-4-(1-(3-methyloxetan-3-yl)-1H-benzo[d]imidazol-2-yl)benzene-1,2-diol], for which the IC50 lay within 0.1 to 1 µM.
